Series [1] in a line: Plasma degradation assay (LC-MS). The class given is in vitro ADME, mouse. The following applies: 37 °C. The method, then: Plasma stability and peptide cleavage sites were assessed by incubating the bicyclic peptides in mouse plasma and analyzing the products with an LC-MS system (LCMS-2020, Shimadzu). Peptide (2 μl of 2 mM in H2O) was added to 48 μl of citrated mouse plasma (Innovative Research) to obtain a final peptide concentration of 80 μM. The mixture was incubated in a water bath at 37 °C. At different time points (0, 15, 24, 72, 96, 120, and 144 h), samples of 5 μl were removed, mixed with 5 μl of 6 M guanidinium hydrochloride, and incubated for 30 min at RT. Plasma proteins were precipitated by incubation with 200 μl of ice cold EtOH and 0.1% (v/v) formic acid for 30 min and centrifuged at 9000 × g for 20 min at 4 °C. […] The residue was dissolved in 40 µl of deionized water containing 0.1% (v/v) CHOOH and analyzed by LC-MS. The samples were analyzed using an analytical C18 column (Phenomenex C18 Kinetex column, 50 × 2.1 mm, 2.6 μm, 100 Å) and a linear gradient of 5–35% solvent B (MeCN, 0.05% [v/v] CHOOH) in solvent A (H2O, 0.05% [v/v] CHOOH) in 5.5 min at a flow of 1 ml per min. The masses of the intact peptide and degradation products were measured on a single quadrupole mass spectrometer in positive ion mode using electrospray ionization. Peptides were quantified based on the absolute intensities of the detected mass peaks (M^3+ and M^4+).

Series [2] in a line: Pharmacokinetic study in mice (plasma concentration by LC-MS). The format is in vivo, mouse. The following applies: 5 mg kg^−1 subcutaneous. Here is the method: Mice for all experiments were kept at ambient temperature (around 20 °C), around 60% humidity, half-day light/half-day dark cycles, and in groups of 2–5 mice per cage. C57BL/6J wild-type mice (male, 10–20 weeks old, 25–30 g, Charles River) were injected subcutaneously over the shoulders with 5 mg kg^−1 of FXII900 (0.5 mg ml^−1 in PBS, pH 7.4). The mice were anaesthetized 3 min before the scheduled blood collection time point (40 mg kg^−1 pentobarbital). […] The mice were euthanized by cervical dislocation. The blood was immediately processed to plasma by centrifugation for 10 min at 2000 × g and 4 °C, and stored at −80 °C. The concentration of FXII900 in the plasma samples was determined by LC-MS as described below. Differenct mice were used for each time point.
(§1) The concentration of FXII900 in the plasma samples was quantified based on peak intensities of total ion current (TIC) chromatograms acquired by LC-MS (LCMS-2020, Shimadzu). To 15 μl of plasma sample, 1 μM of internal standard peptide and 5 μl of 6 M guanidinium hydrochloride solution were added and mixed. Plasma proteins were precipitated by the addition of 400 µl of ice cold ethanol (99.9% [v/v] EtOH, 0.1% [v/v] TFA) and incubated on ice for one hour. Precipitate was removed by centrifugation (9000 × g, 20 min, 4 °C) and the supernatant dried by centrifugal evaporation under vacuum. Dried samples were dissolved by sequentially adding 2 μl of DMSO and 18 μl of H2O containing 0.1% (v/v) CHOOH and analyzed by LC-MS. The samples were analyzed using an analytical C18 column (Phenomenex C18 Kinetex column, 50 × 2.1 mm, 2.6 µm, 100 Å) and a linear gradient of 5–30% solvent B (MeCN, 0.05% [v/v] CHOOH) in solvent A (H2O, 0.05% [v/v] CHOOH) in 4.5 min at a flow of 1 ml per min. The mass was measured on a single quadrupole mass spectrometer in positive ion mode using electrospray ionization. Peptides were quantified based on the absolute intensities of the detected mass peaks (M^3+ and M^4+).

Series [3] is described as follows: Pharmacokinetic study in rabbits (plasma concentration by LC-MS). The class given is in vivo, rabbit. Here is the method:
The pharmacokinetic properties of FXII900 applied intravenously were determined as follows. Female New Zealand White rabbits (10–20 weeks old) were injected with 3.7 mg kg^−1 FXII900 dissolved in 1 ml PBS, pH 7.4 via the ear vein. […] The concentration of FXII900 in the plasma samples was determined by LC-MS as described below. The pharmacokinetic properties of FXII900 applied subcutaneously were determined as follows. Female New Zealand White rabbits (2.5–2.9 kg) were injected subcutaneously over the shoulders with 3.7 mg kg^−1 of FXII900 dissolved in 1 ml PBS pH 7.4. […] The plasma was stored at −80 °C. The concentration of FXII900 in the plasma samples was determined by LC-MS as described below.
as §1

The nature of series [4]: Pharmacokinetic study in pigs (plasma concentration by LC-MS). The format is in vivo, pig. Here is the method: Swiss large white pigs, both sexes, 3–4 months old (30 ± 5 kg) were anesthetized and prepared following procedures used to study myocardial ischemia/reperfusion injury. In this procedure, the ACT is monitored and 2500 IU of heparin are injected when ACT values fall below 180 s. Pigs were injected intravenously with 4 mg kg^−1 of FXII900 dissolved in 1 ml PBS, pH 7.4. […] The concentration of FXII900 in the plasma samples was determined by LC-MS as described below.
as §1

For series [5] the following is noted: human; cited from earlier work.
The mark [6] stands for this setting: female, New Zealand White, rabbit, plasma, intravenous, 3.7 mg kg-1.

Broadly, the Vd is the apparent volume that relates the amount in the body to the concentration in plasma or blood. The clearance is the rate of elimination divided by the concentration.

Each structure is given as a SMILES string. Several values for one entry are separate records, joined by “and”; a condition that tells them apart may be missing. Identical values can stand only once. Like-named read-outs stand apart in the source and are kept apart here. Starred links: 1 amine or outer side, 2 acyl side, 3 side chain; linkers in the order of their positions; H or OH if unused. Positions of bridges follow the written chain, without caps; N, C: chain ends. Non-standard residues stand in square brackets, D forms with d. Residues, ends and D or L forms follow the SMILES beside them. TATA = O=C(CC[*:1])N1CN(C(=O)CC[*:2])CN(C(=O)CC[*:3])C1; Phe(4-F) = N[C@@H](Cc1ccc(F)cc1)C(=O)O; β3hR = N=C(N)NCCC[C@H](N)CC(=O)O

As to `CC(C)C[C@@H]1NC(=O)[C@H](CCC(N)=O)NC(=O)[C@H](Cc2c[nH]cn2)NC(=O)[C@@H]2CSCCC(=O)N3CN(CN(C3)C(=O)CCSC[C@H](NC(=O)[C@@H](CO)NC(=O)[C@H](N)CCCNC(=N)N)C(=O)N[C@@H](Cc3ccc(F)cc3)C(=O)N[C@@H](CCCNC(=N)N)C(=O)N[C@@H](CC(C)C)C(=O)N3CCC[C@H]3C(=O)N2)C(=O)CCSC[C@@H](C(N)=O)NC(=O)C[C@H](CCCNC(=N)N)NC1=O` [FXII900] (H-[dR][dS]C[Phe(4-F)]RLPCHQL[β3hR]C-NH2; linker 3-8-13 via TATA), the “degradation products by mass spectrometric analysis of plasma samples” value in series [1] was “no degradation products”. Also, the Plasma conc. in series [2] (15 min) was 1470 nM; in series [3] (intravenous administration, 5 min, individual rabbits and analyses), 2596 nM; in series [3] (intravenous administration, 10 min, individual rabbits and analyses), 2079 nM; in series [3] (intravenous administration, 20 min, individual rabbits and analyses), 1683 nM and 1119 nM; in series [3] (intravenous administration, 40 min, individual rabbits and analyses), 313.9 nM; in series [3] (subcutaneous administration, 10 min, individual rabbits and analyses) it was 237.6 nM. Moreover, the “Plasma conc.” value in series [3] (subcutaneous administration, 160 min, individual rabbits and analyses) was -5.09 nM; in series [4] (intravenous administration, 4 min, individual pigs and analyses) it was 7458 nM and 7475 nM; in series [4] (intravenous administration, 35 min, individual pigs and analyses), 1282 nM. In addition, the level at time molar at 0.05 h in series [2] (male, C57BL/6J, mouse, plasma, sc, 5 mg/kg, 3 min, read-out: Plasma conc.) is approximately 1000 nM. The level at time molar at […] stood at 1990 nM in series [2] (male, C57BL/6J, mouse, plasma, sc, 5 mg/kg, 15 min, read-out: Plasma conc.); 2710 nM in series [4] (both sexes, Swiss large white, pig, plasma, iv, 4 mg/kg, intravenous administration, 15 min, individual pigs and analyses, read-out: Plasma conc.). Also, the Vd in series [3] (setting [6]) turned out to be 0.28 ± 0.05 L/kg; in series [4] (both sexes, Swiss large white, pig, plasma, intravenous, 4 mg kg^−1, read-out: volume of distribution (VD)) it was 0.61 ± 0.14 L/kg. Moreover, the clearance in series [3] (setting [6]) turned out to be 16.1 ± 1 mL/min/kg; in series [4] (both sexes, Swiss large white, pig, plasma, intravenous, 4 mg kg^−1, read-out: clearance rate (CL)), 11.8 ± 1.8 mL/min/kg. The half-life in series [3] (female, New Zealand White, rabbit, plasma, intravenous, 3.7 mg kg^−1, read-out: elimination half-life (t1/2 β)) was determined as 12 ± 2 min; in series [4] (both sexes, Swiss large white, pig, plasma, intravenous, 4 mg kg^−1, read-out: t1/2 (t1/2 β)), 36 ± 5 min. For the same compound, the level at time molar at 2 min in series [3] (female, New Zealand White, rabbit, plasma, iv, 3.7 mg/kg, intravenous administration, 2 min, individual rabbits and analyses, read-out: Plasma conc.) was found to be 5510 nM. In addition, the level at time molar at 5 min in series [3] (female, New Zealand White, rabbit, plasma, iv, 3.7 mg/kg, intravenous administration, 5 min, individual rabbits and analyses, read-out: Plasma conc.) amounted to 2610 nM. Besides, in series [3] (female, New Zealand White, rabbit, plasma, iv, 3.7 mg/kg, intravenous administration, 10 min, individual rabbits and analyses, read-out: Plasma conc.), the level at time molar at 10 min turned out to be 2250 nM. Besides, the level at time molar at 20 min in series [3] (female, New Zealand White, rabbit, plasma, iv, 3.7 mg/kg, intravenous administration, 20 min, individual rabbits and analyses, read-out: Plasma conc.) worked out at 1260 nM. In addition, the level at time molar at 40 min turned out to be 503 nM in series [3] (female, New Zealand White, rabbit, plasma, iv, 3.7 mg/kg, intravenous administration, 40 min, individual rabbits and analyses, read-out: Plasma conc.); 254 nM in series [3] (female, New Zealand White, rabbit, plasma, sc, 3.7 mg/kg, subcutaneous administration, 40 min, individual rabbits and analyses, read-out: Plasma conc.). The Cmax in series [4] (both sexes, Swiss large white, pig, plasma, intravenous, 4 mg kg^−1, read-out: maximal concentration) is approximately 7000 nM. Also, the level at time molar at 4 min in series [4] (both sexes, Swiss large white, pig, plasma, iv, 4 mg/kg, intravenous administration, 4 min, individual pigs and analyses, read-out: Plasma conc.) is 7470 nM. For the same compound, in series [4] (both sexes, Swiss large white, pig, plasma, iv, 4 mg/kg, intravenous administration, 16 min, individual pigs and analyses, read-out: Plasma conc.), the level at time molar at 16 min is 3720 nM. The level at time molar at 35 min in series [4] (both sexes, Swiss large white, pig, plasma, iv, 4 mg/kg, intravenous administration, 35 min, individual pigs and analyses, read-out: Plasma conc.) stood at 1290 nM. In series [4] (both sexes, Swiss large white, pig, plasma, iv, 4 mg/kg, intravenous administration, 36 min, individual pigs and analyses, read-out: Plasma conc.), the level at time molar at 0.6 h is 1780 nM. The level at time molar at 65 min in series [4] (both sexes, Swiss large white, pig, plasma, iv, 4 mg/kg, intravenous administration, 65 min, individual pigs and analyses, read-out: Plasma conc.) is 692 nM. The level at time molar at 1.1 h in series [4] (both sexes, Swiss large white, pig, plasma, iv, 4 mg/kg, intravenous administration, 66 min, individual pigs and analyses, read-out: Plasma conc.) was found to be 799 nM. Besides, the level at time molar at 2 h in series [4] (both sexes, Swiss large white, pig, plasma, iv, 4 mg/kg, intravenous administration, 120 min, individual pigs and analyses, read-out: Plasma conc.) was 278 nM.

In the case of `CC(C)C[C@@H]1NC(=O)[C@H](CCC(N)=O)NC(=O)[C@H](CCCNC(=N)N)NC(=O)[C@@H]2CSCCC(=O)N3CN(CN(C3)C(=O)CCSC[C@H](NC(=O)[C@@H](N)CCCNC(=N)N)C(=O)N[C@@H](Cc3ccccc3)C(=O)N[C@@H](CCCNC(=N)N)C(=O)N[C@@H](CC(C)C)C(=O)N3CCC[C@H]3C(=O)N2)C(=O)CCSC[C@@H](C(=O)N[C@@H](CCCNC(=N)N)C(N)=O)NC(=O)[C@H](CCCNC(=N)N)NC1=O` [FXII618], the “t1/2 of cleavage of N-terminal Arg1 by plasma proteases” value in series [5] was “around 4 h”.

The values above are taken from paper PMC7403315, “Cyclic peptide FXII inhibitor provides safe anticoagulation in a thrombosis model and in artificial lungs” (Nature Communications, 2020).
